The test system of experiment [1] is pMCAL-stroke (permanent occlusion of distal MCA trunk). The experiment is described as follows: Permanent MCA occlusion (pMCAo/pMCAL) stroke model in adult male and ovariectomized female mice. Type of experiment: in vivo. As to conditions: 2.5 mg/kg IV 1 h after stroke, repeated daily for 2 days, males and OVX-females. As for the experimental part: The procedure for pMCAo was performed in mice as reported by Hoda et al. (Stroke 2012, 43(10):2794-2799). Briefly, under anesthesia, the junction of left zygomatic arch and squamous bone was drilled to make a 2-3 mm burr hole to expose the main trunk of MCA. The left MCA distal to the lenticulostriate branches was electrocauterized carefully without bleeding. The wound was closed, and mice were put under post-op recovery as described above. Sham-operated group underwent similar surgical procedures but without electrocauterization. Cortical LDF (Perimed Inc, Sweden) was performed to confirm the induction of stroke in anesthetized mice. Briefly, mice were anesthetized as above and a shallow indent was made in the parietal skull using a low-speed drill to place the LDF probe holder (PH07-6, Perimed Inc) aligning the holder hole at the stereotaxic coordinates (AP: 2-mm and lateral 3-mm with respect to bregma). The needle of LDF-probe (PH407, Perimed Inc) was inserted into the probe holder and the signal was recorded to confirm a significant drop in CBF following stroke. Mice were anesthetized as above, body temperature was maintained at 37±0.5 ° C., the skull was shaved, and a midline skin incision was made to primarily expose the MCA region. Perfusion images were acquired using PeriCam high resolution LASCA-Imager (PSI-Z system, Perimed Inc.) with a 70-mW built-in laser diode for illumination and 1388×1038 pixels CCD camera installed 10 cm above the skull (speed 19 Hz, and exposure time 6 mSec, 1.3 x 1.3 cm). Acquired video and images were analyzed for the dynamic changes in CBF. Overall perfusion of the ipsilateral ischemic hemisphere was determined, normalized with the equal size of region of interest (ROI) from the uninjured contralateral hemisphere and the relative CBF was calculated. […] Therefore, larger white area indicates higher injury and infarction volume. […] Performance of each mouse on the narrow beam was quantified by measuring the time it took for the mouse to traverse the 100-cm distance on the narrow beam and the number of foot slips that occurred in each trial. […]

A further experiment has as its target T1, GSNOR (Mus musculus, UniProt P28474).
T1 construct: Plasma was isolated from freshly drawn blood after cardiac puncture under deep isoflurane anesthesia; from tissue; host or cells: plasma of aged female C57/B6-background mice after PT-stroke
As to the kind of experiment: Plasma GSNOR activity (GSNO-dependent NADH consumption) after PT-stroke in aged female mice. Type of experiment: in vivo. As to conditions: 2.5 mg/kg after PT-stroke, P<0.01. As for the experimental part: Plasma was isolated from freshly drawn blood after cardiac puncture under deep isoflurane anesthesia, and mice were sacrificed to collect brain tissue. Plasma and brain tissue samples were snap-frozen until assay.
A method of GSNO dependent NADH consumption was used to determine GSNOR activity as reported. Briefly, brain tissue was homogenized in a buffer containing 50mM Tris-HCl (pH 8.0), 150 mM NaCl, 1-mM EDTA, 0.1% Triton X-100 and 1:100 protease inhibitor cocktail and centrifuged (10, 000 g×10 minutes at 4° C.) to obtain supernatant. […] The consumption of NADH was monitored with fluorescence spectrophotometry at an excitation wavelength of 340 nm and emission at 460 nm. GSNOR activity was calculated by subtracting the rate of NADH consumption incubated in the presence of GSNO minus the rate of NADH consumption without GSNO in samples.
A sex difference was found in the basal level of plasma GSNOR activity, showing higher GSNOR activity in female mice compared to age-matched males (P<0.05; N=6/gp) as shown in FIG. 3A. […] Statistical significance was determined at P<0.05 and were indicated with asterisks or different letters indicating statistically different Means.

T1 sequence (P28474 whole entry): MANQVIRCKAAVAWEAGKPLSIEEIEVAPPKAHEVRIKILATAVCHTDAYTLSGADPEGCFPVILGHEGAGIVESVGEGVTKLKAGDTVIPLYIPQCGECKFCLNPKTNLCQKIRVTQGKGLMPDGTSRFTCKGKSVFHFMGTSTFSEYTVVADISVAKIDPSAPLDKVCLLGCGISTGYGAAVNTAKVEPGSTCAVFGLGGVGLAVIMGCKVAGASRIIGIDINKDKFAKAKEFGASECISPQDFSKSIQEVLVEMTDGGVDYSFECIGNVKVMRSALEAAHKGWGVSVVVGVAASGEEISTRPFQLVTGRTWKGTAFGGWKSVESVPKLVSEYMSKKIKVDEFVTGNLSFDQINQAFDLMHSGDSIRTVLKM

As for `Cc1cc(C(N)=O)ccc1-n1c(CCC(=O)O)ccc1-c1ccc(-n2ccnc2)cc1` [GRI therapy, N6022], the “restoration of CBF (% CBF, LSCI) vs vehicle” value in experiment [1] (72 h post-pMCAo) is given as “improved restoration of CBF in both sexes significantly”. Besides, in experiment [1] (72 h post-stroke), the “infarct progression (TTC infarct volume)” value is reported as “significantly prevented the infarct progression sex-independently in both groups” and the “motor function, narrow beam walk test (time to traverse, foot slips)” value is on record as “equally effective in improving motor function in both sexes”. Moreover, at GSNOR, the “post-stroke plasma GSNOR activity” value is recorded as “significantly inhibited the post-stroke plasma GSNOR activity”.

Source of the values: patent US20220062262A1, “GSNO REDUCTASE INHIBITOR AS AN ADJUNCT THERAPY WITH REMOTE ISCHEMIC CONDITIONING AND THROMBOLYTIC REPERFUSION THERAPIES IN STROKE” (KING ABDULAZIZ UNIVERSITY, priority 2020, published 2022).
